According to patent US20180243297A1, “Amino pyrazine derivatives as phosphatidylinositol 3-kinase inhibitors” (Novartis AG, priority 2014, published 2018):
Read-outs that look alike come from different tables or passages of the source.

Legend:
[1] = target: T1, PI 3-kinase gamma (U937 cells, MIP1α-stimulated AKT phosphorylation) (Homo sapiens, UniProt P48736); assay: Cellular U937 AKT assay (HTRF), assay K2; format: cell-based; settings: HTRF format, read-out: Assay K2 PI3Kγ IC50
T1 construct: endogenous in cells; host or cells: U937 human monocyte cell line
T1 sequence (P48736 whole entry): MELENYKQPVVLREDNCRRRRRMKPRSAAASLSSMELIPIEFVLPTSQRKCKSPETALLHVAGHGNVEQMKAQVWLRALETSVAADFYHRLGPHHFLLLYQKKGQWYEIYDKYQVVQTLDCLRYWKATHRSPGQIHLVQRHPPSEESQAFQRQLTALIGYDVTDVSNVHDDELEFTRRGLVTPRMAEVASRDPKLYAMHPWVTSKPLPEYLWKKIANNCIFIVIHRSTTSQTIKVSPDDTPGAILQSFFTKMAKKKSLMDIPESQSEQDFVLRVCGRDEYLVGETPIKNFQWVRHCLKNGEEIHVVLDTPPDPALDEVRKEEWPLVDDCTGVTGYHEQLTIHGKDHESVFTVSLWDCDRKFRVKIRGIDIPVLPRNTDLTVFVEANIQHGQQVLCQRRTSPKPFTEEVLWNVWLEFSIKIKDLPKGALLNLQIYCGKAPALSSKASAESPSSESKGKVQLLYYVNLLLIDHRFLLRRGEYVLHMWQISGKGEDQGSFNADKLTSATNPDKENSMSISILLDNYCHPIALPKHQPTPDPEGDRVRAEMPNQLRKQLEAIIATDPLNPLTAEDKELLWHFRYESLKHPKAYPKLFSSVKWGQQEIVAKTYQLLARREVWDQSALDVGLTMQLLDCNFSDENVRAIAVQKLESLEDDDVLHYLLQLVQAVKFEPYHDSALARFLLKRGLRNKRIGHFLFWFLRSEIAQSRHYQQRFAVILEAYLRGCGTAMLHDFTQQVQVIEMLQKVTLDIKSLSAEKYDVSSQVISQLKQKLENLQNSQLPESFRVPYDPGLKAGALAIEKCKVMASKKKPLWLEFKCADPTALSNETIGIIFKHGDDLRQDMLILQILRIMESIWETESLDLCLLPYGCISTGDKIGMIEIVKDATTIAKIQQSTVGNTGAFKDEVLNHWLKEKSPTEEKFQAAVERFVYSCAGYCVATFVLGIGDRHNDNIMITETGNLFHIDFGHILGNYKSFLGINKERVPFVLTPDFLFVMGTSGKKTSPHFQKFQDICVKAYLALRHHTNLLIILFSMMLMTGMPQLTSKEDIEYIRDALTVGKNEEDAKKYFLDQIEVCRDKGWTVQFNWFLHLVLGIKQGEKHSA
Protocol: (§1) In assays K1 and K2, the compounds were tested for their ability to inhibit the production of phosphorylated AKT (Protein Kinase B) generated in a PI 3-kinase gamma isoform-dependent process in a U937 human cell line.
Cellular U937 AKT Assay for PI 3-Kinase Gamma (K2)
U937 cells are split every 3-4 days: 5×10^6 cells/flask (175 cm^2) in 40 ml.
Semi-automated preparation of cell lysates: Cells were resuspended in HBSS, seeded (200′000 cells/well/60 μl) into a 384-well plate and incubated in a humidified 37° C., 5% CO2 incubator for 1.5 hours. The compounds were diluted with HBSS and 40 μl were added to the starved cells (except for wells 24 I-P). […] The cells were then incubated for 30 minutes at 37° C. and 5% CO2. Stimulation occurred during 3 minutes by addition of 20 μl MIP1α (final 10 ng/ml, diluted in HBSS) in the incubator. Wells 24 A-H were only stimulated with HBSS.
The stimulation was then stopped by putting the cell plates on ice (filled with cold water). The cells were then centrifuged at 1200 rpm and 4° C. for 3 minutes.
80 μl of supernatant was removed. The cells were again centrifuged at 1200 rpm and 4° C. for 3 minutes. The supernatant was then removed by turning plates upside down and 30 μl of lysis buffer were added. The plate was incubated at room temperature for 30 minutes under shaking. 16 μl were then transferred to a ProxiPlate Plus 384-well. […]

PI 3-kinase gamma = PI 3-kinase gamma (Homo sapiens, UniProt P48736); assay: TR-FRET Adapta assay, assay E; format: biochemical
Chain of PI 3-kinase gamma (P48736 whole entry): as above
Protocol: (§2) TR-FRET Adapta Assay for PI 3-Kinase Gamma (E), PI 3-Kinase Delta (F)
(§3) The TR-FRET Adapta™ Universal Kinase Assay Kit was purchased from lnvitrogen Corporation (Carlsbad/CA, USA) (Cat. No. PV5099).
(§4) PIK3CD substrate phosphatidylinositol (PI) was obtained from lnvitrogen (vesicules consisting of 2 mM phosphatidylinositol (PI) in 50 mM HEPES pH7.5; Cat. No. PV5371). PIK3CG substrate phosphatidylinositol-4,5-bisphosphate (PIP(4,5)2 was obtained from lnvitrogen (PIP2:PS large unilamellar vesicules consisting of 1 mM PIP2: 19 mM PS in 50 mM HEPES pH7.5, 3 mM MgCl2, 1 mM EGTA; Cat. No. PV5100).
(§5) The Adapta™ assay can be divided into two phases: a kinase reaction phase and an ADP detection phase. In the kinase reaction phase, all kinase reaction components are added to the well and the reaction is allowed to incubate for a set period of time specific for each kinase. […] In the presence of an inhibitor, the amount of ADP formed by the kinase reaction is reduced, and the resulting intact antibodytracer interaction maintains a high TR-FRET signal.
(§6) 50 nL of compound dilutions were dispensed onto white 384-well small volume polystyrene plate. […]
(§7) Data are analyzed using Excel fit software or Graphpad Prism. IC50 values were derived by fitting a sigmoidal dose-response curve to a plot of assay readout over inhibitor concentration. […]

PI 3-kinase delta = PI 3-kinase delta (Homo sapiens, UniProt O00329); assay: TR-FRET Adapta assay, assay F
Chain of PI 3-kinase delta (P27986 461-568 partner limits assumed, one chain of several): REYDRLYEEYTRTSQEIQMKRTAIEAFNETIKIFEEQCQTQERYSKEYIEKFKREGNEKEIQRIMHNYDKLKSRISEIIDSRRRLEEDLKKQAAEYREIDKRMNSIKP
Protocol: as §2, §3, §4, §5, §6, §7

PI 3-kinase alpha = PI 3-kinase alpha (Homo sapiens, UniProt P42336); assay: Kinase Glo luminescent kinase assay (Kglo), assay A; format: biochemical; settings: read-out: Assay A PI3Kα IC50
Chain of PI 3-kinase alpha (P42336 whole entry): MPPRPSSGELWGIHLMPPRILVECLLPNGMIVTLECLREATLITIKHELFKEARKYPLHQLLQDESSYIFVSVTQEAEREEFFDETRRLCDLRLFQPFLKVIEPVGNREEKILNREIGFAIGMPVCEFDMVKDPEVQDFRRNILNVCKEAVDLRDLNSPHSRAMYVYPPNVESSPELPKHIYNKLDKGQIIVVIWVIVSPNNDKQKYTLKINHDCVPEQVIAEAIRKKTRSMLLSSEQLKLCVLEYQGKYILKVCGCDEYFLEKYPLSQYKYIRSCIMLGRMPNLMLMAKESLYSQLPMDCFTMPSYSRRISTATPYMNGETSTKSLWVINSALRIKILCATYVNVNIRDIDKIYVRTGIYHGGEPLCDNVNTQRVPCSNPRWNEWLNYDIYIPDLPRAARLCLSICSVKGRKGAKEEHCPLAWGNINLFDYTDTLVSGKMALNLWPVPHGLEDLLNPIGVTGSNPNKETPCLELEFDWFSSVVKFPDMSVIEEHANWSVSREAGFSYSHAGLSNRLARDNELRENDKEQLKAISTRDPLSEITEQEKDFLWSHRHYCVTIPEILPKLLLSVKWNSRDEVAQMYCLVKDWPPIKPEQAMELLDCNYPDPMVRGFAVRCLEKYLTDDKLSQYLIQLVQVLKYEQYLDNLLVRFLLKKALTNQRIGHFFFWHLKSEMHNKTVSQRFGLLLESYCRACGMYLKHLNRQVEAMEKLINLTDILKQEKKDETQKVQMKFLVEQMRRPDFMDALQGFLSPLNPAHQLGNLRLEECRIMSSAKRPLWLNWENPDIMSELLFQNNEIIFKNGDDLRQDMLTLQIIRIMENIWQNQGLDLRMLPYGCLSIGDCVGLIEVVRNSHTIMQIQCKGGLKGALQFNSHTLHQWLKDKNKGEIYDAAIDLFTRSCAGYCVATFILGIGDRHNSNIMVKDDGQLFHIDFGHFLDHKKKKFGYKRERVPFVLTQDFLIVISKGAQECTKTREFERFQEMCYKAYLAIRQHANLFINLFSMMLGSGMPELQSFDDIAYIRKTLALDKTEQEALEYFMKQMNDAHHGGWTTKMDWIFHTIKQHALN
Chain of PI 3-kinase alpha (P27986 461-568 partner limits assumed): as the sequence (P27986 461-568 partner limits assumed, one chain of several) above
Protocol: (§8) Kinase Glo Luminescent Kinase Assay (Kglo) for Pb 3-Kinase Alpha (A), Pb 3-Kinase Beta (B), Vps34 (C), Pb 4-Kinase Beta (D)
(§9) The Kinase Glo Luminescent Kinase Assay (Promega, Madison/Wis., USA) is a homogeneous HTS method of measuring kinase activity by quantifying the amount of ATP remaining in solution following a kinase reaction.
(§10) L-α-phosphatidylinositol (PI), provided as 10 mg/ml solution in methanol, was transferred into a glass tube and dried under a nitrogen beam. It was then resuspended in 3% OctylGlucoside (1-0-n-octyl-beta-D-glucopyranoside) by vortexing and stored at 4° C. 5 μL of a mix of PI/OctylGlucoside with the PI 3-kinase alpha and PI 3-kinase beta subtypes, or Vps34 or PI 4-kinase beta were added. Kinase reactions were started by the addition of 5 μl of an ATP-mix containing in a final volume 10 μL 10 mM TRIS-HCl pH 7.5, 3 mM MgCl2, 50 mM NaCl, 0.05% CHAPS, 1 mM DTT and 1 μM ATP at room temperature.
(§11) All fits were performed with the program XLfit4 (ID Business Solutions, Guildford, UK).

[2] = target: T1, PI 3-kinase gamma (U937 cells, MIP1α-stimulated AKT phosphorylation); assay: Cellular U937 AKT assay (MSD), assay K1; format: cell-based; settings: MSD format, read-out: Assay K1 PI3Kγ IC50
Protocol: as §1
Cellular U937 AKT Assay for PI 3-Kinase Gamma (K1)
Cells are incubated at 37° C., 5% CO2.
Before beginning the cell manipulations described below, the MSD (Meso Scale Discovery) assay plate is blocked by addition of 150 μl/well blocking buffer supplied and incubated with shaking for a minimum of one hour at room temperature. All steps of the assay must be performed quickly, with accurately timed incubation periods and observing temperature controls where indicated.
falcon tube, counted and centrifuged for eight minutes at 300 g at room temperature. Supernatant is aspirated, the cell pellet resuspended and washed once in HBSS (Hank's Balanced Salt Solution) by centrifugation for eight minutes at 300 g at room temperature. […] Assay plates are incubated for 1.5 hours at 37° C., 5% CO2 to allow background AKT phosphorylation to reduce before the compound stimulation step.
Compound titrations are prepared in a fresh flat-bottomed, 96-well plate, by 10-fold serial dilution of 40 μM into HBSS 0.8% DMSO; pipette tips are replaced after each dilution is made. Compound concentrations at this stage are 4-times the final concentration required in the assay plate. Cells are stimulated with compound or HBSS 0.8% DMSO by direct transfer of 50 μl/well from the compound dilution plate. The assay plate containing compound-treated cells is then incubated for 30 minutes at 37° C. A standard plate layout is used for all experiments.
Compound-treated cells, in addition to positive control wells (“max MIP1α”), are stimulated with 50 μL per well of 40 ng/ml MIP1α (R&D Systems catalogue number 270-LD, lyophilized stock reconstituted to 50 μg/ml with PBS 0.1% BSA). Negative control wells (“min HBSS”), are stimulated with 50 μl/well of HBSS in the absence of MIP1α. Final compound concentrations are now diluted 4-fold giving a top concentration of 10 μM; where added, the final concentration of MIP1α is 10 ng/ml. Cells are incubated with MIP1α for 3 minutes, at 37° C., 5% CO2. After the three minute stimulation period, the assay plate is kept ice cold at all times. Assay plates are centrifuged for 2 minutes at 300 g, 4° C. and supernatant is removed by gently inverting, and then blotting the plate on tissue. Cells are then washed by gentle addition of 150 μL/well of ice cold HBSS and centrifugation at 300 g, for 5 minutes at 4° C. Supernatant is
aspirated and the plate blotted as described above. […] Plates are incubated on ice for 20 minutes before centrifugation at 841 g for 5 minutes, 4° C.
Block buffer is aspirated from the MSD plate, and the plate washed four times with 300 μl/well Tris wash buffer. 25 μL of cell lysate is then transferred from the assay plate to the washed MSD plate which is sealed and incubated at room temperature for one hour with shaking. […] The plate is washed four times with 300 μl per well of Tris wash buffer and 150 μl per well of Read buffer is added, taking care to avoid the introduction of bubbles. The plate is immediately read using an MSD SECTOR Imager 6000. Results are exported in Excel and the percentage of phosphorylated AKT is calculated using the equation: % Phosphoprotein=((2*Phospho signal)/(Phospho signal+Total signal))*100. Compound-mediated inhibition of AKT phosphorylation is analysed using Prizm V Graphpad software.

Vps34 = Vps34 (Homo sapiens, UniProt Q8NEB9); assay: Kinase Glo luminescent kinase assay (Kglo), assay C; format: biochemical
Chain of Vps34 (Q8NEB9 whole entry, species assumed): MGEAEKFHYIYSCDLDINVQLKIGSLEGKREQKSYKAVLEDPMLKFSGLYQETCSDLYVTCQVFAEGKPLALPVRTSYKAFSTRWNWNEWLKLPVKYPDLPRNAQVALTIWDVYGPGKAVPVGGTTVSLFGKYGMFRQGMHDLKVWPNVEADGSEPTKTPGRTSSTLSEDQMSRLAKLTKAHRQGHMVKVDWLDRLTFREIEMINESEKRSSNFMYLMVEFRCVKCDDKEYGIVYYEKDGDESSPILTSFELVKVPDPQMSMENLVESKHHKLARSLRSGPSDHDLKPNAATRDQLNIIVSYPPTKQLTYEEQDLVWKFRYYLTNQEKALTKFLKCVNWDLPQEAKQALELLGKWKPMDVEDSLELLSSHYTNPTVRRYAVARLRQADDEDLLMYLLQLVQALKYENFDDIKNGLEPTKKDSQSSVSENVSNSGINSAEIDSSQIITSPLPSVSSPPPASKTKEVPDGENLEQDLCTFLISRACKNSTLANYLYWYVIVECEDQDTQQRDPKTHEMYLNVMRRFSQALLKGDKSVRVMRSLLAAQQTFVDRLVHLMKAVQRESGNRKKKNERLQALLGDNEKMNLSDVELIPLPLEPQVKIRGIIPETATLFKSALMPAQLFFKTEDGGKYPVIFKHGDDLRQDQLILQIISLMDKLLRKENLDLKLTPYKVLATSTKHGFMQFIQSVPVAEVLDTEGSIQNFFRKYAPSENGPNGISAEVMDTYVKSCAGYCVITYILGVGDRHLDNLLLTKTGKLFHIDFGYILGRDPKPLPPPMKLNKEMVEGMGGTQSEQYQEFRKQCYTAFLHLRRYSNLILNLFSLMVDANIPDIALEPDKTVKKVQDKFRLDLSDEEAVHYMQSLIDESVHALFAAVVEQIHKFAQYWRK
Protocol: as §8, §9, §10, §11

mTOR = mTOR (Homo sapiens, UniProt P42345); assay: Lanthascreen kinase binding assay, assay G
Protocol: Lanthascreen™ Kinase Binding Assay for mTOR (G)
Binding of an inhibitor to the kinase competes for binding with the tracer, resulting in a loss of FRET.
50 nL of compound dilutions were dispensed onto white 384-well small volume polystyrene plate.

[3] = target: T2, PI 3-kinase alpha (Rat-1_PI3Kalpha cells, Myr-HA-hp110 alpha) (Homo sapiens, UniProt P42336); assay: Cellular p-Akt (S473) assay, Surefire format, assay H1; format: cell-based; settings: non-asterisked data: version H1 (Surefire format); read-out: Assay H PI3Kα IC50
T2 construct: expressed in transfected cells
T2 sequence (P42336 whole entry): as the sequence (P42336 whole entry) above
Description: (§12) Cellular Assays for PI 3-Kinase Alpha (H1), Beta (I1) and Delta (J1): Surefire Format
(§13) AlphaScreen (Amplified Luminescent Proximity Homogeneous Assay, ALPHA, Perkin Elmer) is a non-radioactive bead-based proximity assay technology to study biomolecular interactions in a homogenous microtiter plate format. The brand name SureFire denotes AlphaScreen assays that are adapted to quantify the phosphorylation of endogenous cellular proteins in cell lysates, by using matched antibody pairs, which consist of an anti-phospho-kinase and an anti-kinase antibody. The assay allows characterization of kinase signaling in cells as well as measurement of kinase inhibitor effects.
(§14) Using Rat-1 cells stably expressing myr-HA-tagged versions of the human PI3Kdelta, PI3Kalpha, or PI3Kbeta p110 catalytic subunit isoforms, the assay was developed as a two-plate protocol in a 384-well format.
(§15) For compound testing, the cells were seeded at a density of 4000 (Rat-1_PI3Kdelta), 7500 (Rat-1_PI3Kalpha), or 6200 (Rat-1_PI3Kbeta) cells in 20 μl complete growth medium into cell culture treated 384-well plates and were grown at 37° C./5% CO2/90% humidity for 24 h. Shortly before compound transfer, the complete medium was removed, 30 μl assay buffer (DMEM high glucose, 1×MEM NEAA, 10 mM HEPES, 2 mM L-glutamine, 0.1% (w/v) BSA) was added and 10 μl of the compound predilutions were transferred to the cells.

[4] = target: T3, PI 3-kinase delta (Rat-1_PI3Kdelta cells, Myr-HA-hp110 delta) (Homo sapiens, UniProt O00329); assay: Cellular p-Akt (S473) assay, Surefire format, assay J1; format: cell-based; settings: non-asterisked data: version J1 (Surefire format); read-out: Assay J PI3Kδ IC50
T3 construct: expressed in transfected cells
T3 sequence (O00329 1-1044): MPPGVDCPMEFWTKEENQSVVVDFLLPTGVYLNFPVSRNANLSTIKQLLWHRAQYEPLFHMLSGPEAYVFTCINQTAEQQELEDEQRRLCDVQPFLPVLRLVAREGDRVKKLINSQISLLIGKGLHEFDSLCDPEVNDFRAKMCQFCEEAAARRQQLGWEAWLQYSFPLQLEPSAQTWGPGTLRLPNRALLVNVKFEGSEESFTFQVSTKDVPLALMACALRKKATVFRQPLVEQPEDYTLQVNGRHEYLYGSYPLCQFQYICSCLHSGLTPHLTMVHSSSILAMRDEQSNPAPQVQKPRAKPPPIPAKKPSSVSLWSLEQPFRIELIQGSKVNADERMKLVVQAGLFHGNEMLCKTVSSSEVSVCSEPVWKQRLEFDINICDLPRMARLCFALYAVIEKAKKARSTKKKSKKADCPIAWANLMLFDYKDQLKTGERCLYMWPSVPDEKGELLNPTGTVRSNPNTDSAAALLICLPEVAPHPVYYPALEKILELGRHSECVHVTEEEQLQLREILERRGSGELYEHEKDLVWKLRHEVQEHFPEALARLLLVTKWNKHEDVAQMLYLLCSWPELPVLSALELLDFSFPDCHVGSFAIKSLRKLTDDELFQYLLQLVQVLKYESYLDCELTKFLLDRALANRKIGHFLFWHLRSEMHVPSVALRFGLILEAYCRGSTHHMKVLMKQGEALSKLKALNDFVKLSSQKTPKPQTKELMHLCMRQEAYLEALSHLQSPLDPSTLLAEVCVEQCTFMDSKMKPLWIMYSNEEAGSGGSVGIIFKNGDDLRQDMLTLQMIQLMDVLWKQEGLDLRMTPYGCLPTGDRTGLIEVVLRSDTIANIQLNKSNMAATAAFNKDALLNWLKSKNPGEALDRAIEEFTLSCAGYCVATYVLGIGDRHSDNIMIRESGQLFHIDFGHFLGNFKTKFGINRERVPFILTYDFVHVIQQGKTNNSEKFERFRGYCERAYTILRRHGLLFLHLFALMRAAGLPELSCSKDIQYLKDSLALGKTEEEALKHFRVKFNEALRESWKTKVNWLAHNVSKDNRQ
Description: as §12, §13, §14, §15

[5] = target: T4, PI 3-kinase beta (Rat-1_PI3Kbeta cells, Myr-HA-hp110 beta) (Homo sapiens, UniProt P42338); assay: Cellular p-Akt (S473) assay, Surefire format, assay I1; format: cell-based; settings: non-asterisked data: version I1 (Surefire format); read-out: Assay I PI3Kβ IC50
T4 construct: expressed in transfected cells
T4 sequence (P42338 whole entry): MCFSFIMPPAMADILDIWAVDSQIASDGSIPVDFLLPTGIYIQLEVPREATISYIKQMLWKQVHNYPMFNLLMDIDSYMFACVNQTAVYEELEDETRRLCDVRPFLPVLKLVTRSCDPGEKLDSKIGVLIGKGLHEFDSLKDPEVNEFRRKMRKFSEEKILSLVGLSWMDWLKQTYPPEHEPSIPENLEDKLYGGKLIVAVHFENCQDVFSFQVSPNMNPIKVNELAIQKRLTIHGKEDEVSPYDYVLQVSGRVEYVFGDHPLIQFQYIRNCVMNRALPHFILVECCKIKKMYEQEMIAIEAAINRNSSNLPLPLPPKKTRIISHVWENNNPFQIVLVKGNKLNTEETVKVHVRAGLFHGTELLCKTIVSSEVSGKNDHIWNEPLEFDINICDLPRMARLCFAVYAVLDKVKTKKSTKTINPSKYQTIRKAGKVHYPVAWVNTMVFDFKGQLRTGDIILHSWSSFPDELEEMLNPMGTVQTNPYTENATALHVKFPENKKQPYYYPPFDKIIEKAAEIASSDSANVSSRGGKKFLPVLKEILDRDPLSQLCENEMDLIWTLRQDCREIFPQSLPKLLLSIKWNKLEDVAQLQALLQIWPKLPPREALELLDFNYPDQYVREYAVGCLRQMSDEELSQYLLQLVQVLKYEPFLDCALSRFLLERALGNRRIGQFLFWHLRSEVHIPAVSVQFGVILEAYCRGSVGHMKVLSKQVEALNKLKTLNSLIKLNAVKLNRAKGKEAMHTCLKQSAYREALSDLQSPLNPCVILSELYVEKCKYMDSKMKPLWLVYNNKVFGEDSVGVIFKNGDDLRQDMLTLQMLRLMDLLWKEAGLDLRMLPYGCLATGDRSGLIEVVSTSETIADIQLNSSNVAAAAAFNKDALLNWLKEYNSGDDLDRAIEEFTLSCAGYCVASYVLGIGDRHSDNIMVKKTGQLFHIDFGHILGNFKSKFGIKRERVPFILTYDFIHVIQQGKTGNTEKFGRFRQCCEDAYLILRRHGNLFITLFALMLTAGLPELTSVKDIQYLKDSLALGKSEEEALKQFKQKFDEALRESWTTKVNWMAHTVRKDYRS
Protocol: The assay allows characterization of kinase signaling in cells as well as measurement of kinase inhibitor effects.
as §14, §15, §11

[6] = tested on: IL-8-induced neutrophil shape change in human whole blood; assay: Whole blood neutrophil shape change assay, assay L; format: cell-based; settings: read-out: Assay L WBSC IC50
Protocol: Whole Blood Neutrophil Shape Change Assay (L)
IL-8 was made up to 2 μM stocks in 0.1% bovine serum albumin/PBS and stored at −80° C. On the day IL-8 was diluted in PBS (phosphate buffered saline) 10 minutes before use. IL-8 was used at final concentration of 2 nM and a concentration range from 0.003 to 200 nM for the donor dose response curve.
Assay fixative solution was prepared fresh each day from 10× concentrated CellFlX™ solution diluted 1:10 in sterile distilled water and then 1:4 with PBS. Assay fixative solution was kept on ice prior to use.
A 10× lysis buffer was prepared in advance by dissolving 20.75 g NH4Cl and 2.5 g KHCO3 in 250 ml sterile H2O. This 10× lysis buffer was filtered under sterile conditions and stored for up to two weeks at 4° C. On the day a 1× lysis solution was prepared with sterile distilled H2O and kept on ice prior to use.
The test compounds were prepared as 10 mM stock solutions in 100% DMSO and were stored at 4° C. Once in use for an assay 10 mM stock compounds were thawed and stored at RT protected from light. Compound dilutions were prepared fresh on the day. The first series of dilutions in 100% DMSO were done first thing in the morning. Only once blood had been collected and arrived in laboratory was the next set of dilutions into PBS carried out (1:10 PBS, 10% DMSO). This limited the exposure of diluted compound to plastic and made sure the exposure timing was consistent between assays.
Compound dilutions in 100% DMSO were prepared as described previously. Human whole blood was collected in K2 EDTA Vacutainers. Once blood was in the laboratory, compound dilutions into PBS were carried out as described previously and depicted in Table 1.
The outer wells of the deep well assay plate were filled with 1200 μl of sterile distilled H2O in an effort to limit edge effects (rows A1-H1, A1-A12, A12-H12).
An IL-8 dose response was determined for each blood donor examined, to monitor the donor response to IL-8. […] In addition the assay window without DMSO was also assessed each day. […]

[7] = Microsomal clearance assay, assay M; format: in vitro ADME; settings: intrinsic clearance in rat liver microsomes
Protocol: The experiments were performed in 96-well glass plates at 37° C. on an automated Tecan EVO platform. Test compounds at a concentration of 10 mM in pure DMSO were diluted 1:1000 in water to 10 μM. […] Reactions were initiated by the addition of 150 μL of a cofactor solution containing 2 mM NADPH.

## Cc1ccc(S(=O)(=O)NCC2COCCN2C)cc1-c1cnc(N)c(-c2cn(C)nc2C)n1 (single isomer, unassigned) [Example 128.3a, (R or S)-3-(5-Amino-6-(1,3-dimethyl-1H-pyrazol-4-yl)pyrazin-2-yl)-4-methyl-N-((4-methylmorpholin-3-yl)methyl)benzenesulfonamide]
[1]
  IC50: 241 nM
PI 3-kinase gamma; TR-FRET Adapta assay, read-out: Assay E PI3Kγ IC50
  IC50: 27 nM
PI 3-kinase delta
  IC50: 570 nM
PI 3-kinase alpha
  IC50: 230 nM

## Cc1ccc(S(=O)(=O)NCC2CCC(C)(C)O2)cc1-c1cnc(N)c(-n2cncn2)n1 (stereo in doubt) [Example 127.40, (R)-3-(5-amino-6-(1H-1,2,4-triazol-1-yl)pyrazin-2-yl)-N-((5,5-dimethyltetrahydrofuran-2-yl)methyl)-4-methylbenzenesulfonamide]
[2]
  IC50: 411 nM

## Cc1ccc(S(=O)(=O)NCC(C)(C)O)cc1-c1cnc(N)c(-c2nn(C)nc2C)n1 [Example 19, 3-[5-Amino-6-(2,5-dimethyl-2H-[1,2,3]triazol-4-yl)-pyrazin-2-yl]-N-(2-hydroxy-2-methyl-propyl)-4-methyl-benzenesulfonamide]
Vps34
  IC50: 9400 nM

## Cc1ncc(-c2nc(-c3cc(S(=O)(=O)NCC4(CO)CCOCC4)ccc3C)cnc2N)s1 [Example 45.9, 3-(5-Amino-6-(2-methylthiazol-5-yl)pyrazin-2-yl)-N-((4-(hydroxymethyl)tetrahydro-2H-pyran-4-yl)methyl)-4-methylbenzenesulfonamide]
Vps34
  IC50: 9400 nM

## Cc1cc(-c2nc(-c3cc(S(=O)(=O)NCC(C)(C)O)ccc3C)cnc2N)on1 [Example 88, 3-(5-Amino-6-(3-methylisoxazol-5-yl)pyrazin-2-yl)-N-(2-hydroxy-2-methylpropyl)-4-methylbenzenesulfonamide]
Vps34
  IC50: 9100 nM
mTOR
  IC50: 9100 nM

## Cc1ccc(S(=O)(=O)NCCC(C)(C)O)cc1-c1cnc(N)c(-c2ccnc(F)c2)n1 [Example 119.10, 3-(5-amino-6-(2-fluoropyridin-4-yl)pyrazin-2-yl)-N-(3-hydroxy-3-methylbutyl)-4-methylbenzenesulfonamide]
[2]
  IC50: 172 nM
[3]
  IC50: 630 nM
[4]
  IC50: 1040 nM
[5]
  IC50: 2590 nM

## Cc1ccc(S(=O)(=O)NCCC(C)(C)O)cc1-c1cnc(N)c(-c2cncnc2)n1 [Example 119.20, 3-(5-amino-6-(pyrimidin-5-yl)pyrazin-2-yl)-N-(3-hydroxy-3-methylbutyl)-4-methylbenzenesulfonamide]
[3]
  IC50: 4950 nM
[4]
  IC50: 7030 nM
[5]
  IC50: 4860 nM

## Cc1nc(-c2nc(-c3cc(S(=O)(=O)NCCC(C)(C)O)ccc3C)cnc2N)cs1 [Example 119.30, 3-(5-amino-6-(2-methylthiazol-4-yl)pyrazin-2-yl)-N-(3-hydroxy-3-methylbutyl)-4-methylbenzenesulfonamide]
[6]
  IC50: 1140 nM
[2]
  IC50: 42 nM
[7]
  Assay M RLM CI(int): 77 µL/min/mg
[3]
  IC50: 690 nM
[4]
  IC50: 630 nM
[5]
  IC50: 6990 nM

## Cc1ncc(-c2nc(-c3cc(S(=O)(=O)NCCC(C)(C)O)ccc3C)cnc2N)o1 [Example 119.40, 3-(5-amino-6-(2-methyloxazol-5-yl)pyrazin-2-yl)-N-(3-hydroxy-3-methylbutyl)-4-methylbenzenesulfonamide]
[1]
  IC50: 47 nM
[7]
  Assay M RLM CI(int): 56 µL/min/mg
[3]
  IC50: 1100 nM
[4]
  IC50: 1040 nM
[5]
  IC50: 8160 nM

## Cc1ccc(S(=O)(=O)N[C@@H]2CCOC2)cc1-c1cnc(N)c(-n2cncn2)n1 [Example 127.20, (R)-3-(5-amino-6-(1H-1,2,4-triazol-1-yl)pyrazin-2-yl)-4-methyl-N-(tetrahydrofuran-3-yl)benzenesulfonamide]
[2]
  IC50: 850 nM

## Cc1ccc(S(=O)(=O)NC[C@](C)(O)C(F)(F)F)cc1-c1cnc(N)c(-n2cncn2)n1 [Example 127.23, (S)-3-(5-amino-6-(1H-1,2,4-triazol-1-yl)pyrazin-2-yl)-4-methyl-N-(3,3,3-trifluoro-2-hydroxy-2-methylpropyl)benzenesulfonamide]
mTOR; Lanthascreen kinase binding assay
  IC50: 9100 nM

## Cc1ccc(S(=O)(=O)NCC2(CO)CCOCC2)cc1-c1cnc(N)c(-n2cncn2)n1 [Example 127.50]
[6]
  IC50: 1070 nM
[2]
  IC50: 179 nM

## Cc1ccc(S(=O)(=O)N[C@@H]2CNC[C@H]2O)cc1-c1cnc(N)c(-n2cncn2)n1 [Example 127.60]
[7]
  Assay M RLM CI(int): 20 µL/min/mg

## Cc1cc(-c2nc(-c3cc(S(=O)(=O)NC4CCOCC4)ccc3C)cnc2N)ccn1 [Example 129.10]
[6]
  IC50: 1610 nM
[7]
  Assay M RLM CI(int): 78 µL/min/mg

## Cc1cc(-c2nc(-c3cc(S(=O)(=O)NCCC(C)(O)C(F)(F)F)ccc3C)cnc2N)ccn1 (stereo not drawn) [Example 129.13]
[3]
  IC50: 3000 nM

## Cc1ccc(S(=O)(=O)NCCC(C)(C)O)cc1-c1cnc(N)c(-c2cccnc2OC(C)C)n1 [Reference example 119.12, 3-(5-amino-6-(2-isopropoxypyridin-3-yl)pyrazin-2-yl)-N-(3-hydroxy-3-methylbutyl)-4-methylbenzenesulfonamide]
PI 3-kinase gamma; result in words
  activity in assay E (PI 3-kinase gamma): not shown any activity
